The values that follow come from ChEMBL document CHEMBL4616628, “Unexpected small molecules as novel SIRT2 suicide inhibitors” (Bioorg Med Chem, 2020).

Assay [1] has as its target NAD-dependent protein deacylase sirtuin-5, mitochondrial (Homo sapiens, UniProt Q9NXA8). Description: Inhibition of SIRT5 desuccinylation activity (unknown origin) using H3K9Su (4 to 15 residues) as substrate by HPLC analysis.
Assay [2] addresses T1, NAD-dependent protein deacetylase sirtuin-1 (Homo sapiens, UniProt Q96EB6).
T1 sequence (Q96EB6 whole entry): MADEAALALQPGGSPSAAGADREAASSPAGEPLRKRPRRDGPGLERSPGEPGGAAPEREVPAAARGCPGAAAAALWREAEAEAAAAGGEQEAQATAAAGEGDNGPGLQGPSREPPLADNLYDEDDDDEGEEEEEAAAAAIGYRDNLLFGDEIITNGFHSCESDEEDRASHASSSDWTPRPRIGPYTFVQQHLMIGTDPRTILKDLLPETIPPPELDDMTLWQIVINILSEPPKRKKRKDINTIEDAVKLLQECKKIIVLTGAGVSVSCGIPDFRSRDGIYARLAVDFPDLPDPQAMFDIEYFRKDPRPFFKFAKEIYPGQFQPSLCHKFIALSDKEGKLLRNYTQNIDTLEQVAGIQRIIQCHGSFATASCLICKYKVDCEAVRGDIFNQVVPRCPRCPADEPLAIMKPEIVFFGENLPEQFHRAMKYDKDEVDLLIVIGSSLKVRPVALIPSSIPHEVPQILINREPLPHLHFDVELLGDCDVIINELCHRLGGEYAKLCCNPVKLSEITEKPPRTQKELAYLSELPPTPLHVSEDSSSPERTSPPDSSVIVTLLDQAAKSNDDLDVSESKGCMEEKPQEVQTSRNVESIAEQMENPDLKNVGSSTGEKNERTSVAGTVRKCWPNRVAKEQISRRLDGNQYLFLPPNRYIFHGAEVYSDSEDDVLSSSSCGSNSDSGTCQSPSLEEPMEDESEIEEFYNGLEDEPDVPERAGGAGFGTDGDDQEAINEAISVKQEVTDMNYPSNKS
As to the kind of experiment: Inhibition of SIRT1 deacetylation activity (unknown origin) using H3K9Ac (4 to 15 residues) as substrate by HPLC analysis.

The target of assay [3] is T2, NAD-dependent protein deacetylase sirtuin-3, mitochondrial (Homo sapiens, UniProt Q9NTG7).
T2 sequence (Q9NTG7 whole entry): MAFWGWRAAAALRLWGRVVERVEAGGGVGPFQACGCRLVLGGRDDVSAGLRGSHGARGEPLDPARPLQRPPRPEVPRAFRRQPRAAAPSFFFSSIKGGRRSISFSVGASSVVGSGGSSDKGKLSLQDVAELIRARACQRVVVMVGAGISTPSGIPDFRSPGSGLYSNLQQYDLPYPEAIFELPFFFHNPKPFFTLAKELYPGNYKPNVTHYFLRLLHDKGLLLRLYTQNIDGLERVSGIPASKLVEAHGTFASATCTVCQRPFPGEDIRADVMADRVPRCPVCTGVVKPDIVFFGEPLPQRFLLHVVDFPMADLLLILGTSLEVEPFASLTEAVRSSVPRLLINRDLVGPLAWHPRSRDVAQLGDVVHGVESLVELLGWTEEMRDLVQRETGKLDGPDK
Description: Inhibition of SIRT3 deacetylation activity (unknown origin) using H3K9Ac (4 to 15 residues) as substrate by HPLC analysis.

For assay [4], the target named is T3, NAD-dependent protein deacetylase sirtuin-2 (Homo sapiens, UniProt Q8IXJ6).
T3 sequence (Q8IXJ6 whole entry): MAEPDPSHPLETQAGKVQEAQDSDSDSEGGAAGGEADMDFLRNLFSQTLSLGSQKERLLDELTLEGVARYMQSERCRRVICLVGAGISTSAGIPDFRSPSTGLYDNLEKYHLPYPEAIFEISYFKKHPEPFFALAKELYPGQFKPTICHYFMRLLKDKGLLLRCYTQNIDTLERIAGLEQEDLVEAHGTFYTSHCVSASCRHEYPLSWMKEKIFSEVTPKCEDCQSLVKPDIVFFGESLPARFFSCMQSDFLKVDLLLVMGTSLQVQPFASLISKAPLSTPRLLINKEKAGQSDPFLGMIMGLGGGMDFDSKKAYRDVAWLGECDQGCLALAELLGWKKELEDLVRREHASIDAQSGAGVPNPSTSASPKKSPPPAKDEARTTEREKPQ
Description: Inhibition of SIRT2 deacetylation activity (unknown origin) using H3K9Ac ( 4 to 15 residues) as substrate by HPLC analysis.

The target of assay [5] is T3, NAD-dependent protein deacetylase sirtuin-2. As to the kind of experiment: Inhibition of SIRT2 deacetylation activity (unknown origin) using H4K8Ac (3 to 13 residues) as substrate by HPLC analysis.
Assay [6] shares this target. As to the kind of experiment: Inhibition of SIRT2 defatty-acylation activity (unknown origin) using H4K8-Myr (3 to 13 residues) as substrate by HPLC analysis.
The target is the same in assay [7]. Description: Inhibition of SIRT2 debenzoylation activity (unknown origin) using benzoylated histone H4K8 peptide (3 to 13 residues ) as substrate by HPLC analysis.
Assay [8] is filed under the species Homo sapiens. As to the kind of experiment: Selectivity ratio of IC50 for inhibition of SIRT1 deacetylation activity (unknown origin) to IC50 for inhibition of SIRT2 deacetylation activity (unknown origin).
The species named for assay [9] is Homo sapiens. Description: Selectivity ratio of IC50 for inhibition of SIRT3 deacetylation activity (unknown origin) to IC50 for inhibition of SIRT2 deacetylation activity (unknown origin).
The species entered for assay [10] is Homo sapiens. As to the kind of experiment: Selectivity ratio of IC50 for inhibition of SIRT5 desuccinylation activity (unknown origin) to IC50 for inhibition of SIRT2 deacetylation activity (unknown origin).
Assay [11] concerns the target T4, NAD-dependent protein deacetylase sirtuin-2 (Homo sapiens) (UniProt Q8IXJ6).
T4 sequence (whole entry): T3 sequence (Q8IXJ6 whole entry)
Description: Inhibition of SIRT2 deacetylation activity (unknown origin) assessed as increase in substrate apparent Km at 2 uM using H4K8Ac (3 to 13 residues) as substrate.

Assay [12] has as its target T4, NAD-dependent protein deacetylase sirtuin-2 (Homo sapiens). Description: Irreversible inhibition of SIRT2 deacetylation activity (unknown origin) up to 40 uM using H4K8Ac (3 to 13 residues) as substrate.

The source made the active and inactive calls. The calls are words filed in the database; no cut-off is given here.

NAD-dependent protein deacylase sirtuin-5, mitochondrial, sequence (Q9NXA8 whole entry, the tested form may be a part): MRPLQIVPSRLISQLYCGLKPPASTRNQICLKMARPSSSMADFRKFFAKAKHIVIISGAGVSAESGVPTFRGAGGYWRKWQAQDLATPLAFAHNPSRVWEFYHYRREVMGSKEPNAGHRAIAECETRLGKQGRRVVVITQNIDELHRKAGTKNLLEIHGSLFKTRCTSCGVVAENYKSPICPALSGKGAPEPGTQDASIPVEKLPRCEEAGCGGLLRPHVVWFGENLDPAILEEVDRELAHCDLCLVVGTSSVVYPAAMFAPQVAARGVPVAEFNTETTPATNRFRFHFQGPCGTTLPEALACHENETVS

For the compound `Cc1cc(C)nc(SCC(=O)Nc2ncc(Cc3cccc4ccccc34)s2)n1`, the IC50 in assay [1], in [2] and in [3] was over 200 µM in each case.
Take `O=C(On1nnc2ccccc21)c1ccc[nH]1`: the IC50 (in general, the concentration at which inhibition is half-maximal) in assay [1] was over 200 µM; in assay [2] it was over 200 µM; in assay [4], 42.7 µM; in [3], over 200 µM.
For the compound `Cc1ccc2[nH]cc(C(=O)On3nnc4ccccc43)c2c1`, the IC50 is over 200 µM in assay [1], 51.9 µM in assay [2], 74 µM in assay [4] and 84.9 µM in [3].
For `O=C(On1nnc2ccccc21)c1cc[nH]c1` the same measures were over 200 µM, over 200 µM, 56.6 µM and over 200 µM.
On to `O=C(On1nnc2ncccc21)c1c[nH]c2ccc(Br)cc12`, for which the IC50 was over 200 µM in [1], 40.3 µM in assay [2] and 77.1 µM in assay [4].
As to `O=C(On1nnc2ccccc21)c1c[nH]c2ccccc12`, the IC50 is over 200 µM in [1]; over 200 µM in [2]; 14.3 µM in [4]; over 200 µM in assay [3]; 22.1 µM in assay [5]; 73.6 µM in assay [6]. In assay [7], this compound gave an IC50 of 81 µM. Also, the Ratio IC50 in the assay listed under Homo sapiens [8], in the assay listed under Homo sapiens [9] and in the assay listed under Homo sapiens [10] was 10 each time. Further, the inhibition result in assay [11] and in [12] was “Active” each time.
